Consider 1 compound from paper PMC8495142 (Drug Design, Development and Therapy, 2021).

The test system of one series is CYP3A. To be noted: in vitro; cited from earlier work.
In another series the test system is CYP2D6. To be noted: in vitro; cited from earlier work.
The format of series [1] is in vitro ADME, beagle dog. To be noted: all four storage conditions, 2.5, 50 and 150 ng/mL.

The structures appear in SMILES notation.

For `CC[C@@H]1CN(C(=O)NCC(F)(F)F)C[C@@H]1c1cnc2cnc3[nH]ccc3n12` [Upadacitinib], the “Metabolism by CYP3A” value in the series with CYP3A is reported as “mainly metabolized by CYP3A”. Further, the “Metabolism by CYP2D6” value in the series on CYP2D6 is “a small part by CYP2D6”. Further, the “Stability in beagle dog plasma (in words)” value in series [1] is reported as “stable”.
